Series [1] can be described thus: Surface pressure and surface potential isotherms and Brewster angle microscopy at the air-buffer interface. The class given is physicochemical. The conditions noted are these: 35 °C; for spreading / monolayer formation on the aqueous surface: PBS. On the procedure: (§1) The lipid species were either synthesized as described above or obtained from commercial sources (e.g. Nu-Check-Prep, Elysian, MN) and studied on their own at first. A wide range of lipid mixtures were prepared by weighing selected compounds at specific ratios and further dilution in chloroform to obtain selected concentrations. A 2 mM concentration of the corresponding mixtures was used in the surface potential and pressure measurements and a 5 mM concentration in the evaporation resistance measurements discussed herein.
The lipid mixtures dissolved in chloroform or the formulations were spread onto the air-buffer interface of either a KSV minitrough (Helsinki, Finland) or a KSV large trough which was filled with PBS buffer. Chloroform was allowed to evaporate for 3 min before starting measurements. The surface pressure was measured using a Wilhelmy plate, the surface potential was measured using a KSV surface potential sensor (Espoo, Finland) and Brewster angle microscopy images were captured using a KSV NIMA microBAM (Espoo, Finland) instrument. The films were compressed at a constant rate of 5 or 10 mm/min and the subphase temperature was kept at 35±1° C. The measurements were performed in an acrylic box under an ozone-free atmosphere to prevent undesired oxidation. An ozone-free atmosphere was generated by passing dry air through ODS-3P ozone destruct unit (Ozone solutions, Hull, Iowa) at a rate of 76 l/min within the enclosure.
The organizational behavior of FAHFA/OAHFA and wax ester mixtures were investigated by measuring surface pressure and surface potential isotherms, and, imaging the monolayer structure with a Brewster angle microscope. A phosphate buffered saline (PBS) solution was used as an in vitro model of the ocular surface and the measurements were conducted at physiological temperature (35° C.). With this model system, it is possible to accurately simulate the conditions residing on the ocular surface and the changes occurring during a blink of the eye, both in terms of surface pressure and the capabilities of the monolayer to respread over many compression-expansion cycles. Thus, the study protocol provides the essential information required for evaluating the suitability of the composition in the intended applications. More details on the study protocol can be found in the inventors' previous publications on the topic (Paananen, Ekholm et. al. in Langmuir 2019, Ocul. Surf. 2020, J. Org. Chem. 2021).

Series [2] can be described thus: Evaporation resistance of lipid films (modified Langmuir-Schaefer desiccant cartridge method). The format is physicochemical. As to conditions: lipid film on PBS, 35 °C; compressed to Mma 2-40 Å^2/molecule. On the procedure: as §1
Evaporation resistance is a property of the lipid film residing on top or above an aqueous surface, independent of the measurement method and conditions of the measurement. […] Evaporation resistance of the lipid film can be determined, for example, by measuring the evaporative flux from the aqueous surface without the lipid layer, Jw, and with a lipid film present, Jf. […] The lipid film evaporation resistance can be expressed as a function of measured quantities as rm=Δc(1/Jf−1/Jw).
In this example, the evaporation resistance was determined according to the method originally developed by Langmuir et al. (Langmuir, I. and Schaefer, V., J. 1943, J. Franklin Inst., Vol. 235, 119-162) although with certain modifications (as set out in Bland et al., Langmuir, 2019, 35, 3545-3552 (Supp. Info.). […]

The text below walks through data of patent US20240226052A1, “A SPECIFIC COMBINATION OF LIPIDS AND METHODS AND USES RELATED THERETO” (HELSINGIN YLIOPISTO, priority 2021, published 2024).

In general, melting point refers to the temperature of the solid-liquid transition.

Turning to `CCCCCCCC/C=C\CCCCCCCC(=O)OCCCCCCCCCCCCCCCCCCCC` [AO, arachidyl oleate], the “spreading / monolayer formation on the aqueous surface” value (“spreading / monolayer formation” below) in series [1] is given as “form liquid monolayers upon spreading”. In addition, the “mean molecular area at surface pressure lift-off” value in series [1] (pure lipid on PBS) worked out at 70 Å^2/molecule.

Take `CCCCCCCC/C=C\CCCCCCCC(=O)OCCCCCCCCCCCCCCCCCCCCCC` [BO, behenyl oleate]: the “spreading / monolayer formation” value in series [1] is given as “did not spread on the aqueous surface but formed solid aggregates instead”.

On to `CCCCCCCC/C=C\CCCCCCCC(=O)OCCCCCCCCCCCCCCCCCCCCCCCC(C)C` [Example 5, 24-methylpentacosyl oleate], for which the melting point fell in the range of 36 to 37.5 °C.

For `CCCCCCCC/C=C\CCCCCCCC(=O)OCCCCCCCCCCCCCCCCCCCC(=O)O` [Example 20-OAHFA, 20-(oleoyloxy)eicosanoic acid], the “spreading / monolayer formation” value in series [1] is on record as “form liquid monolayers upon spreading”. In series [1] (pure lipid on PBS), the “mean molecular area at surface pressure lift-off” value is 140 Å^2/molecule and the “surface pressure at transition to a solid monolayer” value is 2 mN/m. In series [2], this molecule displayed a maximum evaporation resistance of 3 to 5 s/cm.
